These results are taken from US20090275606A1, “Heterocyclic Compounds as MEK Inhibitors” (Novartis AG, priority 2008, published 2009).

The structures appear in SMILES notation.

The subject of this experiment is A375 cells. Put plainly: Cell viability assay in A375 cells (XTT). Format: cell-based. The following applies: Homo sapiens, A-375, 72 h, three days after compound addition. The protocol: The cell viability assay in A375 cells is set up in a 96-well plate format using XTT.
XTT is a yellow tetrazolium salt that is cleaved to an orange formazan dye by the mitochondria of metabolically active cells. The procedure allows for rapid determination in a microtitre plate, to give reproducible and sensitive results.
A375 cells are grown in DMEM media containing 10% FBS and 1 mM sodium pyruvate. Cells are trypsinized and seeded at 1000 cells/well. After allowing the cells to adhere overnight, compound is added to the wells at the following final concentrations: 10, 3, 1, 0.3, 0.1, 0.03, 0.01, 0.001, and 0.0001 μM. The assay is set up in triplicates for each concentration. DMSO concentrations are kept at 0.5%/well. Three days after compound addition, the XTT assay is performed. Wells are washed once with PBS. 100 μL of DMEM media without phenol red or FBS is added to each well. A working solution of XTT containing 1 mg/ml XTT and 100 μL of PMS (stock concentration 0.383 mg/ml) per 5 ml is prepared. 50 μL of the working solution of XTT is added to each well. Absorbance of the plate is read at 465 nm using a Spectramax 190 (Molecular Devices). The absorbance from wells with media and XTT alone, but without cells is considered the blank and subtracted from readings from all wells.
Percentage viability is calculated considering the blank subtracted value from wells treated with DMSO alone as 100% viable. GI50 values are calculated using Graphpad Prism, using non-linear regression curve fit for sigmoidal dose response (variable slope).
The cell viability assay is further described in Scudiero, et. al., Cancer Research (1988) 48, 4827-4833; Weislow, et. al., J. Natl. Cancer Institute, (1989) 81, 577-586; and Roehm, et. al., J. Immunol. Methods [1991]142:257-265.
Background: Tetrazolium dyes change colour on reduction, which living cells bring about.
`NC(=O)c1c(Nc2ccc(I)cc2F)cc(=O)n2c1CCC2` [Compound 38]: halving of growth (GI50) required 73 nM.

Regarding `O=C(NOCC1CC1)c1c(Nc2ccc(Br)cc2F)c(F)c(=O)n2c1CCC2` [Compound 20], the GI50 (in general, the concentration that inhibits growth by half) was determined as 55 nM.

With `O=C(NOCCO)c1c(Nc2ccc(I)cc2F)cc(=O)n2c1CCC2` [Compound 40], it took 0.7 nM to inhibit growth by half (GI50).

As to `Cc1c(Nc2ccc(Br)cc2F)c(C(=O)NOCCO)c2n(c1=O)CCC2` [Compound 25], the GI50 stood at 10 nM.

Consider `O=C(NOCCO)c1c(Nc2ccc(I)cc2F)c(F)c(=O)n2c1CCC2` [Compound 46], for which the GI50 stood at 6.7 nM.

Consider `CCONC(=O)c1c(Nc2ccc(Br)cc2F)c(C)c(=O)n2c1CCC2` [Compound 27], for which growth was halved (GI50) at 60 nM.

As to `CONC(=O)c1c(Nc2ccc(Br)cc2F)cc(=O)n2c1CCC2` [Compound 6], the GI50 turned out to be 150 nM.

Turning to `CCONC(=O)c1c(Nc2ccc(I)cc2F)cc(=O)n2c1CCC2` [Compound 42], it took 3.6 nM to inhibit growth by half (GI50).

`O=C(NOCC1CC1)c1c(Nc2ccc(I)cc2F)cc(=O)n2c1CCC2` [Compound 39] had a GI50 of 0.8 nM.

The molecule `O=C(NOCC1CC1)c1c(Nc2ccc(Br)cc2F)cc(=O)n2c1CCC2` [Compound 4] displayed a GI50 of 14 nM.

`O=C(NOCC1CC1)c1c(Nc2ccc(I)cc2F)c(F)c(=O)n2c1CCC2` [Compound 45] yielded a GI50 of 0.4 nM.

The molecule `CCONC(=O)c1c(Nc2ccc(Br)cc2F)cc(=O)n2c1CCC2` [Compound 10] showed a GI50 of 40 nM. This GI50 is about 100-fold higher than that of the molecule before.

`CONC(=O)c1c(Nc2ccc(I)cc2F)cc(=O)n2c1CCC2` [Compound 41] came in with a GI50 of 9 nM.

The molecule `Cc1c(Nc2ccc(Br)cc2F)c(C(=O)NOCC2CC2)c2n(c1=O)CCC2` [Compound 24] came in with a GI50 of 36 nM.
